IC50 and CLi rat data for three compounds are collected here from patent US20260199309A1, “COMPOUNDS FOR THE TREATMENT OF CENTRA NERVOUS SYSTEM DISORDERS” (Autifony Therapeutics Limited, priority 2022, published 2026).

What all share (assay type): in vitro ADME
One data set addresses T1, CYP3A4 (Homo sapiens, UniProt P08684).
T1 construct: purchased
The data set is described as follows: CYP450 inhibition, pro-fluorescent probe substrate (3A4/7BQ). The conditions noted are these: recombinant human CYP450, substrate 7-BQ; top concentration 5.00E-05; read-out: CYP3A47BQ.

In a further data set the target is CYP2C19 (Homo sapiens, UniProt P33261). Kind of data set: CYP450 inhibition, pro-fluorescent probe substrate (2C19/BMC). The following applies: recombinant human CYP450, substrate BMC; top concentration 5.00E-05.
The nature of data set [1]: In vitro metabolic stability (CLint), rat. The following applies: intrinsic clearance, incubation 0-30 minutes at 37° C. with NADPH regenerating system. The procedure: The objective of this study was to determine metabolic stability of test items in preclinical species and human liver microsomes. Verapamil and dextromethorphan were used as positive controls for microsomal incubation.
Incubation medium was prepared by combining 11.2 mL of potassium phosphate monobasic and 38.8 mL of potassium phosphate dibasic, diluted to 1 L with water. Cryopreserved microsomes were thawed and kept on ice until use. Microsomes were then diluted in incubation to a protein concentration of 0.56 mg/mL. Cells were centrifuged, re-suspended in medium and counted by means of a haemocytometer. Cell viability was measured using the Trypan Blue exclusion test.
NADPH regenerating system solution was prepared by dissolving 1.7 mg of NADP, 7.8 mg of G6P and 6 units of G6P-Dehydrogenase in 1 mL of 2% sodium bicarbonate solution (prepared by dissolving 20 g of NaHCO3 in 1 L of water).
Test compounds were separately dissolved in DMF to obtain 10 mM stock solutions that were further diluted in water/acetonitrile 50/50 (v/v) to obtain the corresponding 50 uM working solutions. Verapamil and dextromethorphan were dissolved in DMF in order to obtain a 10 mM verapamil solution and 10 mM dextromethorphan solution. These solutions were then diluted in the incubation medium in order to obtain a 50 uM verapamil working solution and a 50 uM dextromethorphan working solution.
800 μL-aliquots of NADPH regenerating system were pre-warmed at 37° C. for 5 minutes. […]
Metabolic stability was calculated from the peak area ratio of the remaining test compound with internal standard versus time. The intrinsic clearance (CLint) was determined from the first order elimination constant k (min^−1) (obtained from GraphPad by plotting the natural logarithm of the peak area ratio of the remaining test item with internal standard versus time), using the actual volume of the incubation V (mL), the amount of hepatocytes in the incubation M (million cells) and the hepatocellularity number per g liver Hn (120 for human).

Sequence of CYP2C19 (P33261 whole entry): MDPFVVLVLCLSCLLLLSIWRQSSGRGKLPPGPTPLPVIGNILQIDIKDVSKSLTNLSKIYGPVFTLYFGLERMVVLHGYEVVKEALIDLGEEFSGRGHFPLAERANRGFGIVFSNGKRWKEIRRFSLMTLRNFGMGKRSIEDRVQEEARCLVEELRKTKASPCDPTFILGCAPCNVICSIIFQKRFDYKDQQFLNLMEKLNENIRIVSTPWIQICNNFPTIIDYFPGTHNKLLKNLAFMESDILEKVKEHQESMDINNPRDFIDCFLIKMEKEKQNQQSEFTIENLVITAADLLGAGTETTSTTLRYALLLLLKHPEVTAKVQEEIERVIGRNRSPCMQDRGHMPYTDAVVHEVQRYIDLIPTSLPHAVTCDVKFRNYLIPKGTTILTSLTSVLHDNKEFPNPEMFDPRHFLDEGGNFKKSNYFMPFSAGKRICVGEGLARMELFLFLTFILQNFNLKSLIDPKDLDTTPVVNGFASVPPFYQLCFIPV
T1 sequence (P08684 whole entry): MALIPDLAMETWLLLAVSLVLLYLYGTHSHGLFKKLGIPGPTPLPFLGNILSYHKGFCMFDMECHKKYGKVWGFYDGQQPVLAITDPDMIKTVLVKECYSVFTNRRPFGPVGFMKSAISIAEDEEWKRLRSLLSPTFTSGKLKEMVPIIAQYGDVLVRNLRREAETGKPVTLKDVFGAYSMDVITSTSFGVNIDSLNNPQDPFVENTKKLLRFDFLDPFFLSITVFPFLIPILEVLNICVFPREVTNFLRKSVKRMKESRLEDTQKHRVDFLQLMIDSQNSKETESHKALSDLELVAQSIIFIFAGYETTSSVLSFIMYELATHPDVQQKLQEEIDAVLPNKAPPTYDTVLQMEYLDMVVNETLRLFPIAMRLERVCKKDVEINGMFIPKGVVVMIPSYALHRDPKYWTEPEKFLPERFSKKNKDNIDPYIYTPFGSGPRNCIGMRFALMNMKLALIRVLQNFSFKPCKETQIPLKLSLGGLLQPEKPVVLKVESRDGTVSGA

For the compound `Cc1ccc(Oc2ccc(N3C(=O)NC(C)(C)C3=O)c(N)n2)c2c1OCC21CC1` [Example 1, 3-[2-amino-6-(7-methylspiro[2H-benzofuran-3,1′-cyclopropane]-4-yl)oxy-3-pyridyl]-5,5-dimethyl-imidazolidine-2,4-dione], the IC50 at CYP3A4 and at CYP2C19 was more than 50 µM each time. The compound also came in with a CLi rat in data set [1] of 5.4 mL/min/g liver.
Take `CC1(C)NC(=O)N(c2ccc(Oc3cccc(OC(F)(F)F)c3)nc2N)C1=O` [Example 9, 3-[2-amino-6-[3-(trifluoromethoxy)phenoxy]-3-pyridyl]-5,5-dimethyl-imidazolidine-2,4-dione]: the IC50 was more than 50 µM at CYP3A4 and 21 µM on CYP2C19. The compound further had a CLi rat in data set [1] of less than 0.5 mL/min/g liver.
Regarding `COc1nc(Oc2ccc(C)c3c2C2(CC2)CO3)ccc1N1C(=O)NC(C)(C)C1=O` [Reference Example 2, reference compound], the IC50 on CYP3A4 is more than 50 µM; on CYP2C19, 1.1 µM. The CLi rat in data set [1] is reported as 8.7 mL/min/g liver.
